We go through six molecules from patent US20230226214A1, “BIFUNCTIONAL BRIDGING COMPOSITIONS FOR VIRAL TRANSDUCTION” (Lycia Therapeutics, Inc., priority 2020, published 2023).

One data set concerns human Jurkat cells. The data set is described as follows: Uptake of IgG2a-Alexa488 mediated by anti-IgG2a conjugates (flow cytometry). The conditions noted are these: 1 h and 24 h. Format: cell-based. As to the method:
The anti-IgG2a conjugates were bound to IgG2a-Alexa488, as follows: equal molar ratios of anti-IgG2a and IgG2a-Alexa488 were added in tissue culture media for 30 minutes at room temperature. The resulting anti-IgG2a:IgG2a antibody-Alexa488 compositions were added to human Jurkat cells (100 k cells/50 ul per well, n=2), and Alexa488 fluorescence levels were measured (via Alexa488 measurement) at 1 hour and 24 hours by flow cytometry. Because Alexa488 accumulates in cells, this presents a way to measure total intracellular uptake by cells over time.

For data set [1], the target named is T1, recombinant human CI-M6PR protein (Homo sapiens, UniProt P11717).
T1 construct: purchased R&D 6418-GR-050
T1 sequence (P11717 41-1365 limits assumed): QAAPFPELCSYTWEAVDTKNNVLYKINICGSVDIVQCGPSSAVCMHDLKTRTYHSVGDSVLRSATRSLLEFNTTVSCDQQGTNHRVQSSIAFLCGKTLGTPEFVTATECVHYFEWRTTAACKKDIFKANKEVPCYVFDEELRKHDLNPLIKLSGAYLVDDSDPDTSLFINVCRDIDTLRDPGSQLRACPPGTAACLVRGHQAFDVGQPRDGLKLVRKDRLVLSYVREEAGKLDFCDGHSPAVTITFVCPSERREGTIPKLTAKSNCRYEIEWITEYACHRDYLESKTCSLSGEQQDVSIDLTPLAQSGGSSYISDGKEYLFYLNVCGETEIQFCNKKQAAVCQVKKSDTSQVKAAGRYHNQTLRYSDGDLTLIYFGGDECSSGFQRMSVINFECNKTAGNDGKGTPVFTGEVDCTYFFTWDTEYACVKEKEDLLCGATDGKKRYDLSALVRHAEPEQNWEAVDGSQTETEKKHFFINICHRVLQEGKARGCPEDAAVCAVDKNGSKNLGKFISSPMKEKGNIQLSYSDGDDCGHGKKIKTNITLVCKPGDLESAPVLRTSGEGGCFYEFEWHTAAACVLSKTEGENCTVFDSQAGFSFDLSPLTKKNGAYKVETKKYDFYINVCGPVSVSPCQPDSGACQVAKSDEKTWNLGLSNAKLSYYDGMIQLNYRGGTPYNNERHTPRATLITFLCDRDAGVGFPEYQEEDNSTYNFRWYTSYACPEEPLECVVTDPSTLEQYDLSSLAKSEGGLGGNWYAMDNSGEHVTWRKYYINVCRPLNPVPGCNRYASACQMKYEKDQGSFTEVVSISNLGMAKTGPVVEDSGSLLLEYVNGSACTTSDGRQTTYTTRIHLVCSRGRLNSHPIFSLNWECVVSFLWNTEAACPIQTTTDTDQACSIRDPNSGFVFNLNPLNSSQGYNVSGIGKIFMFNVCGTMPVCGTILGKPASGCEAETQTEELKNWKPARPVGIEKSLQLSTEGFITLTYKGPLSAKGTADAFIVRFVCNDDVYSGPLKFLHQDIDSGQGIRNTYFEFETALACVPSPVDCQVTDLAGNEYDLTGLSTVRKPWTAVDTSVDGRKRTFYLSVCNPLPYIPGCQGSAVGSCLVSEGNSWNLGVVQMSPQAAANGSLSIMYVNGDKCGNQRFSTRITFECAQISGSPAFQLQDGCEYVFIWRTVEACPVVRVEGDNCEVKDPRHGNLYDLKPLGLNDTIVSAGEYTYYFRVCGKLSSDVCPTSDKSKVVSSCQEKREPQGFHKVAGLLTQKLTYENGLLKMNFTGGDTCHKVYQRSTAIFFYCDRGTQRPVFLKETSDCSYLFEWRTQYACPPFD
The data set is described as follows: M6PR binding ELISA of matuzumab conjugates. Particulars: antibody conjugates of the ligand-linkers. As to the method: Binding affinity of matuzumab conjugated to ligand-linkers for M6PR was determined by ELISA using the following protocol: Nunc black solid bottom MaxiSorp plates were allowed to incubate overnight at 4° C. coated with 1 μg/mL of recombinant human CI-M6PR protein (R&D, 6418-GR-050) in 50 μL PBS. The next day, coating was decanted and plates were washed 3× with PBS. Wells were blocked with 350 μL of 3% BSA-PBS for 1 hour at room temperature. […] 50 μL of diluted conjugates were added to the plate and allowed to incubate at room temperature for 2 hours. After incubation, solutions in plate were decanted and washed with 350 μL of 0.05% PBS-Tween20 three times, drying the plate each wash on a clean paper towel. 50 μL of peroxidase AffiniPure Mouse Anti-Human IgG (Jackson Immuno, 209-035-088) diluted in 3% BSA-PBS to 0.2 μg/mL was added to the plate and allowed to incubate for 1 hour at room temperature in the dark. After incubation, solutions in plate were decanted and washed with 350 μL of 0.05% PBS-Tween20 3 times, drying the plate each wash on a clean paper towel. […] 50 μL of QuantaBlu solution was added to wells and allowed to incubate for 5-10 minutes at room temperature. After incubation, plates were read on a Perkin Elmer EnVision using photometric 340 and Umbelliferone 460 filter sets for excitation and emission, respectively. Data analysis and non-linear curve-fitting was performed using GraphPad Prism.

For data set [2] the following is noted: mice, intravenous, 10 μg/mouse; serum rIgG1 at 0.5-24 hours; compared with Compound I-7 conjugate. As to the method: A pharmacokinetic analysis of the rIgG1 (anti-IgG2a) antibody conjugates described in the previous example was performed in mice. In particular, C57B6 mice were intravenously administered each rIgG1 antibody conjugate at 10 μg/mouse (5 mice per group). Blood was collected at 0.5, 1, 2, 6, and 24 hours and serum rIgG1 was analyzed using an ELISA kit (Abcam) according to the manufacturer's instructions. Samples were run across 3 different plates with unconjugated rIgG1 controls (UNLB-anti-IgG2a rIgG1) included on all 3 plates.

For a further data set, the system named is human HepG2 cells. In words: Transduction efficiency of AAV8 particle conjugates in HepG2 cells (GFP). Format: cell-based. The conditions noted are these: increasing MOI, 72 hrs, compared with unconjugated AAV8. As to the method: Transduction efficiency of AAV8 particle conjugates was also measured in human HepG2 cells and compared to that of an unconjugated AAV-CMV-GFP control (“AAV8 GFP-UNLB”). HepG2 cells were transduced with increasing multiplicity of infection (MOI) of unconjugated AAV8, AAV8 conjugated to Compound I-7 (ITX-16590), and AAV conjugated to Compound I-124 (ITX-22701) or different molar rations of AAV8 conjugated to Compound I-124 (ITX-22701).
In performing the experiments described above, 2V6·11 cells (Elab Science) in DMEM (Gibco) with 10% fetal bovine serum (Gibco) were seeded onto 96-well plates (Nunc) at a concentration of 20 k cells/well 24 hours prior to infection. Jurkat cells (ATCC) in RPMI (Gibco) with 10% fetal bovine serum (Gibco) were seeded onto 96-well plates (Nunc) 1 h prior to transduction. HepG2 cells (ATCC) in EMEM (Gibco) with 10% fetal bovine serum (Gibco) were seeded onto 96-well plates (Nunc) 24 hours prior to infection. […]
After the incubation period, the medium was aspirated, the cells were washed with PBS and analyzed for GFP expression via flow cytometry on BioRad ZES Cell Analyzer (BioRad) or analyzed for luciferase levels using a luciferase assay kit (Promega) following manufacture's protocol and using a luminometer.

As to `O=C(CCOCCOCCOCCOCCOCCOCCOCCOCCn1cc(CCO[C@H]2O[C@H](CCP(=O)(O)O)[C@@H](O)[C@H](O)[C@@H]2O)nn1)Oc1c(F)c(F)c(F)c(F)c1F` [Compound I-9], in the data set with human Jurkat cells, the “intracellular uptake (Alexa488 fluorescence)” value (from here on “intracellular uptake”) is reported as “sufficiently robust uptake”.
Consider `O=C(CCN1C(=O)C=CC1=O)NCCOCCOCCOCCn1cc(CCO[C@H]2O[C@H](CCP(=O)(O)O)[C@@H](O)[C@H](O)[C@@H]2O)nn1` [Compound I-10], for which the “binding affinity for M6PR” value in data set [1] is reported as “weaker binding affinity to M6PR compared to Compound I-7”. The half-life in serum result in data set [2] was “longer half-life”.
Consider `O=C(CCOCCn1cc(CCO[C@H]2O[C@H](CCP(=O)(O)O)[C@@H](O)[C@H](O)[C@@H]2O)nn1)Oc1c(F)c(F)c(F)c(F)c1F` [Compound I-11], for which the “binding affinity for M6PR” value in data set [1] was “weaker binding affinity to M6PR compared to Compound I-7”. Also, the half-life in serum entry in data set [2] is “longer half-life”. Further, the “intracellular uptake” value in the data set on human Jurkat cells is on record as “sufficiently robust uptake”.
Turning to `O=C(CCOCCOCCOCCN(CCOCCOCCOCCn1cc(CCO[C@H]2O[C@H](CCP(=O)(O)O)[C@@H](O)[C@H](O)[C@@H]2O)nn1)CCOCCOCCOCCn1cc(CCO[C@H]2O[C@H](CCP(=O)(O)O)[C@@H](O)[C@H](O)[C@@H]2O)nn1)Oc1c(F)c(F)c(F)c(F)c1F` [Compound I-12], the “binding affinity for M6PR” value in data set [1] is recorded as “weaker binding affinity to M6PR compared to Compound I-7”. The half-life in serum entry in data set [2] is given as “longer half-life”. The “intracellular uptake” value with human Jurkat cells is listed as “sufficiently robust uptake”.
`CC(=O)N[C@H]1[C@H](OCCCCC(=O)NCCCNC(=O)CCOCC(COCCC(=O)NCCCNC(=O)CCCCO[C@@H]2O[C@H](CO)[C@H](O)[C@H](O)[C@H]2NC(C)=O)(COCCC(=O)NCCCNC(=O)CCCCO[C@@H]2O[C@H](CO)[C@H](O)[C@H](O)[C@H]2NC(C)=O)NC(=O)CCCCCCCCCCC(=O)Oc2c(F)c(F)c(F)c(F)c2F)O[C@H](CO)[C@H](O)[C@@H]1O` [Compound I-124]: the “transduction efficiency (percentage of GFP positive cells, MFI)” value with human HepG2 cells is “greater transduction efficiency than unconjugated AAV8”.

B1: Compound I-11d4: "matuzumab-Compound I-11 (d4)" conjugate tested for M6PR binding (conjugate)
heavy: QVQLVQSGAEVKKPGASVKVSCKASGYTFTSHWMHWVRQAPGQGLEWIGEFNPSNGRTNYNEKFKSKATMTVDTSTNTAYMELSSLRSEDTAVYYCASRDYDYAGRYFDYWGQGTLVTVSSASTKGPSVFPLAPSSKSTSGGTAALGCLVKDYFPEPVTVSWNSGALTSGVHTFPAVLQSSGLYSLSSVVTVPSSSLGTQTYICNVNHKPSNTKVDKKVEPKS
light: DIQMTQSPSSLSASVGDRVTITCSASSSVTYMYWYQQKPGKAPKLLIYDTSNLASGVPSRFSGSGSGTDYTFTISSLQPEDIATYYCQQWSSHIFTFGQGTKVEIKRTVAAPSVFIFPPSDEQLKSGTASVVCLLNNFYPREAKVQWKVDNALQSGNSQESVTEQDSKDSTYSLSSTLTLSKADYEKHKVYACEVTHQGLSSPVTKSFNRGE
modifications: left off: a dimerising Fc or GST
With B1, the “binding affinity for M6PR” value in data set [1] was “lowest”.
